Among the data in US8283345B2, “Azetidine analogues of nucleosidase and phosphorylase inhibitors” (Industrial Research Limited, priority 2006, dated 2012) are Ki values, retold here.

Counter-ions that a name gives are not always drawn. Like-named read-outs stand apart in the source and are kept apart here. Bounds are passed on as bounds.

In assay [1] the target is T1, Human PNP (Homo sapiens, UniProt P00491).
T1 sequence (P00491 1-289): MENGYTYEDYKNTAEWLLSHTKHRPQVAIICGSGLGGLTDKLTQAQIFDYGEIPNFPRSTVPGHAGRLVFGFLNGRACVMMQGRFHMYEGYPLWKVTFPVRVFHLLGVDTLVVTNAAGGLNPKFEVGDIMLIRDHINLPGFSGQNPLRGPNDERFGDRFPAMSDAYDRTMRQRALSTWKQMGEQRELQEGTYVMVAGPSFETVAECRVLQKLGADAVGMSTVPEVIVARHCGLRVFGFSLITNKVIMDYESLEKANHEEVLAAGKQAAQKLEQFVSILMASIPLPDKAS
The experiment in a line: PNP inhibition, xanthine oxidase coupled assay. It counts as biochemical. Particulars: inosine Km 40 μM.
Protocol: (§2) PNP and MTAN/MTAP activities were monitored by xanthine oxidase coupled assays, as previously described [Biochemistry, 2006, 45, 12929-12941; Biochemistry, 1998, 37, 8615-8621]. […] Michaelis constants used in data fitting were as follows: 40 μM, 34 μM, and 5 μM for inosine with human, bovine, and P. falciparum PNPs, respectively; 5 μM, 0.43 μM, and 23 μM for MTA with human MTAP, E. coli MTAN, and S. pneumoniae MTAN, respectively.

Assay [2] has as its target T2, P. falciparum PNP (Plasmodium falciparum, UniProt Q8I3X4).
T2 sequence (Q8I3X4 1-245): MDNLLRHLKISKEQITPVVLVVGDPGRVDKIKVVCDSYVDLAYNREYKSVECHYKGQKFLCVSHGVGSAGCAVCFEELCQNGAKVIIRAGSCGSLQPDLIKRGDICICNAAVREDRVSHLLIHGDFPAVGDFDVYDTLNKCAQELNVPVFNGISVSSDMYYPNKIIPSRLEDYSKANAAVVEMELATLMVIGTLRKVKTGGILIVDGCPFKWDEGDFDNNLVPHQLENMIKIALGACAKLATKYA
The experiment in a line: biochemical.
Protocol: as §2

The target of assay [3] is T3, Bovine PNP (Bos taurus, UniProt P55859).
T3 sequence (P55859 1-289): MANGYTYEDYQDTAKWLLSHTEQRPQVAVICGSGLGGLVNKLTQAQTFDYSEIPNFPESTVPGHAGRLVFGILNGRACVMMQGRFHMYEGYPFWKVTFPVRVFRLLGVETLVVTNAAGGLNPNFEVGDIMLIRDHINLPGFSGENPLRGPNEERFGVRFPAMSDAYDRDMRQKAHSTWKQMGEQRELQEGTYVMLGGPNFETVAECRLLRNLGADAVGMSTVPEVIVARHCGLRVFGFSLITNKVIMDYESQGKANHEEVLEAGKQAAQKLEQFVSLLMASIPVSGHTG
The experiment in a line: PNP inhibition, xanthine oxidase coupled assay. Format: biochemical.

In assay [4] the target is S. pneumoniae MTAN (Streptococcus pneumoniae, UniProt Q8DQ16). The experiment in a line: MTAN inhibition, xanthine oxidase coupled assay. Format: biochemical. Particulars: MTA Km 23 μM. The procedure: (§1) For PNP assays, inosine and inhibitor concentrations were determined spectrophotometrically using an ε260 of 7.1 mM^−1 cm^−1 (pH 6) [Dawson' et al, Data for Biochemical Research, 3rd ed., 1986, Clarendon Press, Oxford, U.K.] and an ε261 of 9.54 mM^−1 cm^−1 (pH 7) [Lim, M.-I.; Ren, Y.-Y.; Otter, B. A.; Klein, R. S., J. Org. Chem. 1983, 48, 780-788], respectively. For MTAN/MTAP assays, methylthioadenosine and inhibitor concentrations were determined using an ε260 of 14.9 mM^−1 cm^−1 (pH 6) [Dawson et al, as above] and an ε275 of 8.5 mM^−1 cm^−1 (pH 7), [J. Org. Chem. 1983, 48, 780-788] respectively. PNP and MTAN/MTAP activities were monitored by xanthine oxidase coupled assays, as previously described [Biochemistry, 2006, 45, 12929-12941; Biochemistry, 1998, 37, 8615-8621]. In all cases, the inhibitor concentration was at least 10-fold greater than the enzyme concentration, as required for simple analysis of slow-onset tight-binding inhibition [Morrison, J. F.; Walsh, C. T. Adv. Enzymol. Relat. Areas Mol. Biol., 1988, 61, 201-301] Michaelis constants used in data fitting were as follows: 40 μM, 34 μM, and 5 μM for inosine with human, bovine, and P. falciparum PNPs, respectively; 5 μM, 0.43 μM, and 23 μM for MTA with human MTAP, E. coli MTAN, and S. pneumoniae MTAN, respectively.
S. pneumoniae MTAN, sequence (Q8DQ16 entry or part of it): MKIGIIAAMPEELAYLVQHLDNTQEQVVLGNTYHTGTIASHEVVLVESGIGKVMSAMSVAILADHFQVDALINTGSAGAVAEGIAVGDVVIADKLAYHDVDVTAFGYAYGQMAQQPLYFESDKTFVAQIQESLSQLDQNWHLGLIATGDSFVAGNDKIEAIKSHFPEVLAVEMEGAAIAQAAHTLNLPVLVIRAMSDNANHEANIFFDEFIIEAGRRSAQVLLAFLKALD

Assay [5] deals with E. coli MTAN (Escherichia coli, UniProt P0AF12). The experiment in a line: MTAN inhibition, xanthine oxidase coupled assay. It counts as biochemical. Particulars: MTA Km 0.43 μM. On the procedure: as §1
E. coli MTAN, sequence (P0AF12 whole entry): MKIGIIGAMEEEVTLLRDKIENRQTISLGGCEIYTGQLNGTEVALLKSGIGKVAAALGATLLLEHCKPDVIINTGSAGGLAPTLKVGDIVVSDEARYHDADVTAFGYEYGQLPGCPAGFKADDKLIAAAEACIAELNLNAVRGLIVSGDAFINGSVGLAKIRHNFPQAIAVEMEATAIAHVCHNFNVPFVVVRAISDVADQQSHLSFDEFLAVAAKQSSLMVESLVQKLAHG
For assay [6], the target named is T4, Human MTAP (Homo sapiens, UniProt Q13126).
T4 sequence (Q13126 1-283): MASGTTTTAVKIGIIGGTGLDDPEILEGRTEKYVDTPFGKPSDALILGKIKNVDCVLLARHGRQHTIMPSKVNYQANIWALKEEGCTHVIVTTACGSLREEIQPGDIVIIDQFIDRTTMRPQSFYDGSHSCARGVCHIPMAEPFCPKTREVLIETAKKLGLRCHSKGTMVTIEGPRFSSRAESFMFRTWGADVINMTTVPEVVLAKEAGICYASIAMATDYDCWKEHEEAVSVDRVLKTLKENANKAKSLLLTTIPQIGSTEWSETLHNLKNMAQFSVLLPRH
The experiment in a line: MTAP inhibition, xanthine oxidase coupled assay. As to conditions: MTA Km 5 μM. Format: biochemical.
Protocol: as §2

Setting [7] is: inhibition constant Ki, read-out: Ki Human PNP.
The mark [8] stands for this setting: inhibition constant Ki, inosine Km 34 μM, read-out: Ki Bovine PNP.

For `O=c1[nH]cnc2c(CN3[C@H](CO)C[C@H]3CO)c[nH]c12` (racemic) [(±)-37, (±)2,4-trans-[(9-Deazahypoxanthin-9-yl)methyl]azetidine-2,4-dimethanol hydrochloride], the Ki – broadly, the dissociation constant of the complex between target and ligand, obtained from inhibition or displacement – in assay [1] (setting [7]) came to 280 nM; in assay [2] it was 580 nM; in assay [3] (setting [8]), 360 nM.

On to `O=c1[nH]cnc2c(CN3CCC3CO)c[nH]c12` (racemic) [(±)-43, (±)7-((2-(Hydroxymethyl)azetidin-1-yl)methyl)-5H-pyrrolo[3,2-d]pyrimidin-4-ol], for which the Ki is 1.8 nM in assay [1] (Ki Human PNP, inhibition constant Ki); 0.26 nM in assay [1] (Ki* Human PNP, Ki*, slow-onset tight-binding inhibition); 1.8 nM in assay [3].

In the case of `O=c1[nH]cnc2c(CN3CC(CO)(CO)C3)c[nH]c12` [Compound 18, 1-[(9-Deazahypoxanthin-9-yl)methyl]azetidine-3,3-dimethanol], the Ki in assay [1] (setting [7]) was 0.229 nM; in assay [2] it was above 10000 nM; in assay [3] it was 0.065 nM; in assay [3] (Ki*, slow-onset tight-binding inhibition, inosine Km 34 μM, read-out: Ki* Bovine PNP), 0.236 nM.

On to `O=c1[nH]cnc2c(CN3CC(CO)C3)c[nH]c12` [Compound 19, 1-[(9-Deazahypoxanthin-9-yl)methyl]azetindine-3-methanol], for which the figures for the Ki in assay [1] (setting [7]), in assay [2] (read-out: Ki P. falciparum PNP) and in assay [3] (setting [8]) were 6.3 nM, above 10000 nM and 4.8 nM, respectively.

On to `CSCC1(CO)CN(Cc2c[nH]c3c(N)ncnc23)C1` [Compound 21, 1-[(9-Deazaadenin-9-yl)methyl]-3-methylthiomethylazetidine-3-methanol hydrochloride], for which the Ki in assay [4] stood at 150 nM; in assay [5] it was 0.84 nM; in assay [6], 140 nM.

As for `CSCC1CN(Cc2c[nH]c3c(N)ncnc23)C1` [Compound 22, 1-[(9-Deazaadenin-9-yl)methyl]-3-methylthiomethylazetidine], the Ki in assay [4] worked out at 84 nM; in assay [5], 0.45 nM; in assay [6], 2 nM.

Consider `O=c1[nH]cnc2c(CN3[C@H](CO)C[C@@H]3CO)c[nH]c12` [Compound 36, meso-[(9-Deazahypoxanthin-9-yl)methyl]azetidine-2,4-dimethanol hydrochloride], for which the Ki came out at 12.9 nM in assay [1] (setting [7]), 1290 nM in assay [2] and 16 nM in assay [3] (setting [8]).
